In patent US10654847B2, “Substituted 2-(4-heterocyclylbenzyl)isoindolin-1-one analogs as positive allosteric modulators of the muscarinic acetylcholine receptor M1” (Vanderbilt University, priority 2011, dated 2020):
Where two headings read alike, the source gives them in different places.

Target: T1, mAChR M1 (UniProt P11229)
T1 sequence (P11229 1-460): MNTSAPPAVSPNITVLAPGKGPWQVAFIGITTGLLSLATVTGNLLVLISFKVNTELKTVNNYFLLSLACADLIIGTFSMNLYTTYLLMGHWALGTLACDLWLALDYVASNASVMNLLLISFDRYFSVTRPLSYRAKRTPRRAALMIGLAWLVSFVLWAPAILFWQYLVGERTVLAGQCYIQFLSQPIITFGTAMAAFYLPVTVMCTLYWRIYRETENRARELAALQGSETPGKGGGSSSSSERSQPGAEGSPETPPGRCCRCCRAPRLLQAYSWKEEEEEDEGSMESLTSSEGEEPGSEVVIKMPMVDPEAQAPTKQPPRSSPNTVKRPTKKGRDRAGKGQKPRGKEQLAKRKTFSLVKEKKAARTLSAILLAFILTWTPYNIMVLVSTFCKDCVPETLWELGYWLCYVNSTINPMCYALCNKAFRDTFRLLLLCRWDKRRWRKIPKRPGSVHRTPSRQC
Assay: mAChR M1 cell-based functional assay (calcium mobilization, potentiation of EC20 acetylcholine response)
Details: for Emax (%): % ACh maximum at 30 μM, mAChR M1-expressing CHO-K1 cells, calcium flux; for pEC50 / EC50: positive allosteric modulation of EC20 ACh response, mAChR M1 CHO-K1 cells; for pEC50: <5 estimated where no plateau; for EC50: >10 μM estimated where no plateau
Method: Chinese hamster ovary (CHO-K1) cells stably expressing rat (r)M1 were purchased from the American Type Culture Collection and cultured according to their indicated protocol. […] To make stable rM2, hM2, rM3, hM4, and rM4 cell lines for use in calcium mobilization assays, these cells also were stably transfected with a chimeric G-protein (Gqi5) (provided by B. R. Conklin, University of California, San Francisco) using Lipofectamine 2000. rM1, hM1, rM3, hM3, rM5, and hM5 cells were grown in Ham's F-12 medium containing 10% heat-inactivated fetal bovine serum (FBS), 20 mM HEPES, and 50 μg/mL G418 sulfate. rM2-Gqi5, hM2-Gqi5, and hM4-Gqi5 cells were grown in the same medium also containing 500 μg/mL Hygromycin B. Stable rM4-Gqi5 cells were grown in DMEM containing 10% heat-inactivated FBS, 20 mM HEPES, 400 μg/mL G418 sulfate, and 500 μg/mL Hygromycin B.
For high throughput measurement of agonist-evoked increases in intracellular calcium, CHO-K1 cells stably expressing muscarinic receptors were plated in growth medium lacking G418 and hygromycin at 15,000 cells/20 μL/well in Greiner 384-well black-walled, tissue culture (TC)-treated, clear-bottom plates (VWR). Cells were incubated overnight at 37° C. and 5% CO2. […] Compound master plates were formatted in an 11 point CRC format (1:3 dilutions) in 100% DMSO with a starting concentration of 10 mM using the BRAVO liquid handler (Agilent). Test compound CRCs were then transferred to daughter plates (240 nL) using the Echo acoustic plate reformatter (Labcyte, Sunnyvale, Calif.) and then diluted into assay buffer (40 μL) to a 2× stock using a Thermo Fisher Combi (Thermo Fisher Scientific, Waltham, Mass.).
Calcium flux was measured using the Functional Drug Screening System (FDSS) 6000 (Hamamatsu Corporation, Tokyo, Japan) as an increase in the fluorescent static ratio. Compounds were applied to cells (20 μL, 2×) using the automated system of the FDSS 6000 at 4 s into the 300 s protocol and the data were collected at 1 Hz. […] Agonist activity was analyzed as a concentration-dependent increase in calcium mobilization upon compound addition. Positive allosteric modulator activity was analyzed as a concentration-dependent increase in the EC20 acetylcholine response. Antagonist activity was analyzed as a concentration-dependent decrease in the EC80 acetylcholine response. Concentration-response curves were generated using a four-parameter logistical equation in XLfit curve fitting software (IDBS, Bridgewater, N.J.) for Excel (Microsoft, Redmond, Wash.) or Prism (GraphPad Software, Inc., San Diego, Calif.).
The above described assay was also operated in a second mode where an appropriate fixed concentration of the present compounds were added to the cells after establishment of a fluorescence baseline for about 3 seconds, and the response in cells was measured. […] Data were reduced as described above and the EC50 values for the agonist in the presence of test compound were determined by nonlinear curve fitting. A decrease in the EC50 value of the agonist with increasing concentrations of the present compounds (a leftward shift of the agonist concentration-response curve) is an indication of the degree of muscarinic positive allosteric modulation at a given concentration of the present compound. An increase in the EC50 value of the agonist with increasing concentrations of the present compounds (a rightward shift of the agonist concentration response curve) is an indication of the degree of muscarinic antagonism at a given concentration of the present compound. The second mode also indicates whether the present compounds also affect the maximum response of the muscarinic receptor to agonists.
The calcium mobilization assay was also used to determine “efficacy”.

Emax (%) | pEC50 | EC50 (read-out: EC50) [nM] | Compound | EC50 [nM]
26 | <5.00 | > 10000 | O=C1c2cccnc2CN1Cc1ccc(-c2cccc3cccnc23)cc1F [Example B38] | –
38 | <5.00 | > 10000 | O=C1c2ccccc2CN1Cc1ccc(-c2c[nH]nc2C(F)(F)F)cc1F [Example B16] | –
53 | <5.00 | > 10000 | CN(C)c1ccc(-c2ccc(CN3Cc4ncccc4C3=O)c(F)c2)cc1 [Example B52] | –
67 | 6.51 | 309 | O=C1Cc2cc(-c3cc(F)c(CN4Cc5ncccc5C4=O)c(F)c3)ccc2N1 [Example B91] | –
73 | 6.59 | 257 | Cn1cc2cc(-c3cc(F)c(CN4Cc5ncccc5C4=O)c(F)c3)ccc2n1 [Example B51] | –
61 | 5.71 | 1950 | Cn1cc2c(-c3ccc(F)c(CN4Cc5ncccc5C4=O)c3)cccc2n1 [Example B110] | –
58 | 6.28 | 525 | O=C1c2cccnc2CN1Cc1ccc(-c2ccc3[nH]ncc3c2)cc1F [Example B36] | –
72 | 6.40 | 398 | Cn1cnc2ccc(-c3cc(F)c(CN4Cc5ncccc5C4=O)c(F)c3)cc21 [Example B82] | –
56 | 5.83 | 1480 | CN1CCc2cc(-c3cc(F)c(CN4Cc5ncccc5C4=O)c(F)c3)ccc21 [Example B103] | –
44 | 5.43 | 3720 | O=C1c2cccnc2CN1Cc1ccc(-c2ccnc3ccccc23)cc1F [Example B45] | –
35 | 5.83 | 1480 | COc1ccc(-c2ccc(CN3Cc4cccnc4C3=O)c(Cl)c2)cc1 [Example B76] | –
79 | 5.70 | 2000 | Cn1cc2ccc(-c3ccc(CN4Cc5cccnc5C4=O)c(F)c3)cc2n1 [Example B72] | –
59 | 5.68 | 2090 | O=C1c2ncccc2CN1Cc1ccc(-c2ccc3ccncc3c2)cc1F [Example B70] | –
34 | <5.00 | > 10000 | O=C1c2cccnc2CN1Cc1ccc(-c2ccc3cc[nH]c3c2)cc1F [Example B28] | –
53 | <5.00 | > 10000 | O=C1c2cccnc2CN1Cc1ccc(-c2cn3ccnc3cn2)cc1F [Example B90] | –
37 | <5.00 | > 10000 | Cn1cc(-c2ccc(CN3Cc4ccccc4C3=O)nc2)cn1 [Example B15] | –
47 | <5.00 | > 10000 | COc1cncc(-c2ccc(CN3Cc4ncccc4C3=O)c(F)c2)c1 [Example B43] | –
57 | 6.07 | 851 | O=C1c2cccnc2CN1Cc1c(F)cc(-c2ccc3nccn3c2)cc1F [Example B80] | –
40 | <5.00 | > 10000 | Cn1cc(-c2ccc(CN3Cc4ccccc4C3=O)cn2)cn1 [Example B17] | –
64 | <5.00 | > 10000 | Cn1ncc2ccc(-c3ccc(CN4Cc5ccccc5C4=O)c(F)c3)cc21 [Example B24] | –

Emax (%) | pEC50 | EC50 (read-out: EC50) [nM] | Compound | EC50 [nM]
74 | 6.07 | 851 | Cn1cc2c(-c3ccc(CN4Cc5ncccc5C4=O)c(F)c3)cccc2n1 [Example B32] | –
<30 | <5.00 | > 10000 | O=S1(=O)c2ccccc2CN1Cc1ccc(-c2cnns2)cc1 [Example B117] | –
48 | 5.73 | 1860 | Cc1cc(-c2ccc(CN3Cc4cccnc4C3=O)c(F)c2)cnc1Cl [Example B63] | –
71 | 5.47 | 3400 | O=C1c2ccccc2CN1Cc1ccc(-c2ccncc2)cc1F [Example B11] | –
48 | <5.00 | > 10000 | O=C1c2cccnc2CN1Cc1c(F)cc(-c2cccc3nccn23)cc1F [Example B89] | –
66 | 5.43 | 3720 | Cn1cc2cc(Nc3ccc(CN4Cc5ncccc5C4=O)c(F)c3)ccc2n1 [Example B58] | –
<30 | <5.00 | > 10000 | Cn1ncc2cc(-c3ccc(CN4Cc5ccccc5C4=O)c(F)c3)ccc21 [Example B114] | –
<30 | <5.00 | > 10000 | O=C1c2ccccc2CN1Cc1ccc(-c2ccc3cc[nH]c3c2)cc1F [Example B121] | –
78 | 5.82 | 1500 | Cc1nn(C)cc1-c1ccc(CN2Cc3ccccc3C2=O)c(F)c1 [Example B2] | –
68 | 5.81 | 1550 | O=C1c2cccnc2CN1Cc1ccc(-c2ccc3ccncc3c2)cc1F [Example B49] | –
81 | 6.13 | 741 | Cn1cnc2ccc(-c3ccc(CN4Cc5ncccc5C4=O)c(F)c3)cc21 [Example B54] | –
42 | 5.70 | 2000 | Cc1cc(-c2ccc(CN3Cc4cccnc4C3=O)c(Cl)c2)cnc1Cl [Example B75] | –
50 | <5.00 | > 10000 | O=C1c2ncccc2CN1Cc1ccc(-c2cccnc2)cc1F [Example B64] | –
38 | 5.59 | 2600 | O=C1c2ccccc2CN1Cc1ccc(-c2ccc3cnccc3c2)cc1F [Example B6] | –
36 | 5.42 | 3800 | Cn1cc(-c2ccc(CN3Cc4ccccc4C3=O)c(C(F)(F)F)c2)cn1 [Example B12] | –
54 | 5.22 | 6030 | O=C1c2cccnc2CN1Cc1ccc(-c2cccnc2)cc1F [Example B47] | –
49 | 6.68 | 209 | Cc1n[nH]c2cc(-c3cc(F)c(CN4Cc5ncccc5C4=O)c(F)c3)ccc12 [Example B98] | –
34 | 5.60 | 2500 | Cn1cc2cc(-c3ccc(CN4Cc5ccccc5S4(=O)=O)c(F)c3)ccc2n1 [Example B5] | –
53 | <5.00 | > 10000 | O=C1c2cccnc2CN1Cc1c(F)cc(-c2cccc3ncccc23)cc1F [Example B95] | –

Compound | Emax (%) | pEC50 | EC50 (read-out: EC50) [nM] | EC50 [nM]
CN1CCc2cc(-c3ccc(CN4Cc5ncccc5C4=O)c(F)c3)ccc21 [Example B55] | 60 | 5.64 | – | 2290
